Values quoted from earlier work, collected in patent US8506359B2, “Aqueous dispersion for chemical mechanical polishing and chemical mechanical polishing method” (JSR Corporation, priority 2008, dated 2013).

Conditions: 25° C.; second carboxyl group for two carboxyl groups, third carboxyl group for three or more

SMILES | pKa
O=C(O)C1CCCCCCC1C(=O)O (stereo not drawn) [1,2-Cyclooctanedicarboxylic acid (cis), 1,2-Cyclooctanedicarboxylic acid] | 7.34
O=C(O)C1CCCCCC1C(=O)O (stereo not drawn) [1,2-Cycloheptanedicarboxylic acid (cis), 1,2-Cycloheptanedicarboxylic acid] | 7.60
O=C(O)C1CCCCCC1C(=O)O (stereo not drawn) [1,2-Cycloheptanedicarboxylic acid (trans)] | 6.18

Next, values leading:

pKa | SMILES
6.57 | O=C(O)C1CCCC1C(=O)O (stereo not drawn) [1,2-Cyclopentanedicarboxylic acid (cis), 1,2-Cyclopentanedicarboxylic acid]
5.99 | O=C(O)C1CCCC1C(=O)O (stereo not drawn) [1,2-Cyclopentanedicarboxylic acid (trans)]
6.24 | O=C(O)C1CCCCCCC1C(=O)O (stereo not drawn) [1,2-Cyclooctanedicarboxylic acid (trans), 1,2-Cyclooctanedicarboxylic acid]
